Measured values: patent US10208033B2, “β-carboline, dihydro-β-carboline and tetrahydro-β-carboline alkaloid derivatives and preparation methods same and use in aspects of preventing and treating plant viruses, fungicides and insecticides” (NANKAI UNIVERSITY, priority 2013, dated 2019)
In brackets after ≈: the same amount, converted by molar mass.

Experiments:
culex pipiens larvae = settings: in vivo; cited from earlier work
Lipaphis erysimi = settings: in vivo; cited from earlier work
[1] = test system: tobacco mosaic virus (TMV); assay: Anti-TMV in vitro effect (half-leaf soaking); type: cell-based, tobacco mosaic virus (host Nicotiana tabacum L.cv.Xanthi NN)
[2] = test system: tobacco mosaic virus (TMV); assay: Anti-TMV in vivo inactivation; parameters: species or system tobacco mosaic virus (host Nicotiana tabacum L.cv.Xanthi NN)
[3] = test system: tobacco mosaic virus (TMV); assay: Anti-TMV in vivo therapeutic effect; parameters: species or system tobacco mosaic virus (host Nicotiana tabacum L.cv.Xanthi NN)
[4] = test system: tobacco mosaic virus (TMV); assay: Anti-TMV in vivo protective effect; parameters: species or system tobacco mosaic virus (host Nicotiana tabacum L.cv.Xanthi NN)
cucumber fusarium wilt = assay: Fungicidal (bactericidal) activity in vitro, PDA colony diameter; type: cell-based; settings: 50 mg/kg
Cercospora arachidicola = assay: as above; type: cell-based; settings: 50 mg/kg
Macrophoma kawatsukai = assay: as above; type: cell-based; settings: 50 mg/kg
Alternaria solani = assay: as above; type: cell-based; settings: 50 mg/kg
Fusarium graminearumt = assay: microbe, parasite or virus in culture; type: cell-based; settings: 50 mg/kg
potato late blight = assay: microbe, parasite or virus in culture; type: cell-based
Sclerotinia scleotiorum = assay: Fungicidal (bactericidal) activity in vitro, PDA colony diameter; type: cell-based; settings: 50 mg/kg
Botrytis cinerea = assay: as above; type: cell-based; settings: 50 mg/kg
Rhizoctonia solani = assay: as above; type: cell-based; settings: 50 mg/kg
Phytophthora capsici = assay: as above; type: cell-based; settings: 50 mg/kg
Fusarium fujikuroi = assay: as above; type: cell-based; settings: 50 mg/kg
Rhizoctonia cereali = assay: as above; type: cell-based; settings: 50 mg/kg
Bipolaria maydis = assay: organism not typed; type: cell-based; settings: 50 mg/kg
[5] = test system: Colletotrichum orbiculare; assay: Fungicidal (bactericidal) activity in vitro, PDA colony diameter; type: cell-based; settings: 50 mg/kg
armyworms = type: in vivo; settings: concentration 600 mg/kg
cotton bollworms = assay: whole plant or invertebrate; settings: concentration 600 mg/kg
Procedure: Experimental method of cotton bollworms: feed and drug mixing method: measure 3 mL of prepared solution and add it to about 27 g of newly prepared feed, thereby obtaining needed concentration through dilution by 10 times.

mosquito larvae = assay: whole plant or invertebrate; settings: concentration 10 mg/kg, 24 h
In short: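 Compound dissolved in acetone (or other solvent) to a 1000 ppm stock and diluted in water to 5 ppm. Ten Culex pipiens pallens larvae at the start of the fourth instar, laboratory-reared, added per beaker; solvent-only aqueous control.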

14 kinds of fungi = assay: Bactericidal activity, overall statements on Table 2; type: cell-based; settings: Table 2, 50 mg/kg
From the text: In vitro test method (Alternaria solani is taken for example. Alternatively, other fungi may be used): Inoculate Alternaria solani to PDA culture medium, culture it for 7 days, prepare […] bacteria plates from colony edge by a puncher, inoculate […] and drug-free PDA culture media, culture them for 4 days, measure colony diameter, compare with the control group and calculate the inhibition percentage of the drug.

corn borers = settings: concentration 600 mg/kg

Row | Structure (SMILES) | Relative inhibition rate (%) In vitro activity ([1]; treatment dose 100 μg/mL) [%] | Relative inhibition rate (%) In vitro activity ([1]; treatment dose 500 μg/mL) [%] | Relative inhibition rate (%) In vivo inactivation ([2]; treatment dose 100 μg/mL) [%] | Relative inhibition rate (%) In vivo inactivation ([2]; treatment dose 500 μg/mL) [%] | Relative inhibition rate (%) In vivo therapy ([3]; treatment dose 100 μg/mL) [%] | Relative inhibition rate (%) In vivo therapy ([3]; treatment dose 500 μg/mL) [%] | Relative inhibition rate (%) In vivo protection ([4]; treatment dose 100 μg/mL) [%] | Relative inhibition rate (%) In vivo protection ([4]; treatment dose 500 μg/mL) [%] | Bactericidal activity (%) Cucumber fusarium wilt (cucumber fusarium wilt) [%] | Bactericidal activity (%) Cercospora arachidicola (Cercospora arachidicola) [%] | Bactericidal activity (%) Macrophoma kawatsukai (Macrophoma kawatsukai) [%] | Bactericidal activity (%) Alternaria solani (Alternaria solani) [%] | Bactericidal activity (%) Fusarium graminearumt (Fusarium graminearumt) [%] | Bactericidal activity (%) potato late blight (potato late blight) [%] | Bactericidal activity (%) Sclerotinia scleotiorum (Sclerotinia scleotiorum) [%] | Bactericidal activity (%) Botrytis cinerea (Botrytis cinerea) [%] | Bactericidal activity (%) Rhizoctonia solani (Rhizoctonia solani) [%] | Bactericidal activity (%) Phytophthora capsici (Phytophthora capsici) [%] | Bactericidal activity (%) Fusarium fujikuroi (Fusarium fujikuroi) [%] | Bactericidal activity (%) Rhizoctonia cereali (Rhizoctonia cereali) [%] | further results
1 | COC(=O)c1cc2c([nH]c3ccccc32)c(-c2ccccc2)n1 | – | – | – | – | – | – | – | – | – | – | – | – | – | – | – | – | – | – | – | – | LC50 against culex pipiens larvae (culex pipiens larvae): 20.82 µg/mL (≈ 68.9 µM); LC50 against Lipaphis erysimi (Lipaphis erysimi): 53.16 µg/mL (≈ 176 µM)
2 | COC(=O)C1Cc2c([nH]c3ccccc23)C(c2ccccc2)N1 (stereo not drawn) | – | – | – | – | – | – | – | – | – | – | – | – | – | – | – | – | – | – | – | – | LC50 against culex pipiens larvae (culex pipiens larvae): 23.98 µg/mL (≈ 78.3 µM); LC50 against Lipaphis erysimi (Lipaphis erysimi): 68.05 µg/mL (≈ 222 µM)
3 | Cc1nc(C=O)cc2c1[nH]c1ccccc12 [Ia-13, 1-methyl-pyridino [3,4-b] indol-3-formaldehyde] | – | – | – | – | – | – | – | – | – | – | – | – | – | – | – | – | – | – | – | – | melting point: 194 to 196 °C
4 | CC[C@@H]1N[C@H](C(=O)O)Cc2c1[nH]c1ccccc21 [Ib-3, (1S, 3S)-1-ethyl-2,3,4,9-tetrahydropyridino [3,4-b] indol-3-formic acid] | – | – | – | – | – | – | – | – | – | – | – | – | – | – | – | – | – | – | – | – | melting point: 277 to 280 °C
5 | C[C@@H]1N[C@H](C(=O)NN=Cc2ccc(C(C)(C)C)cc2)Cc2c1[nH]c1ccccc21 [Ic-2, (1S, 3S)—N′-(4-tert-butylbenzylidene)-1-methyl-2,3,4,9-tetrahydropyridino [3,4-b] indol-3-formylhydrazine] | 17.6 | 52.4 | 13.3 | 50.3 | 18.2 | 47 | 21.7 | 53.8 | 65.4 | 82.4 | 97.2 | 70.0 | 41.4 | 76.0 | 94.1 | 86.4 | 88.2 | 73.7 | 57.1 | 98.0 | Bactericidal activity (%) Bipolaria maydis (Bipolaria maydis): 84.0%; Bactericidal activity (%) Colletotrichum orbiculare [5]: 77.8%; Armyworm Mortality (%) (armyworms): 10%; Cotton bollworm Mortality (%) (cotton bollworms): 30%; Mosquito larvae Mortality (%) (mosquito larvae): 20%; bactericidal activity against fungi (in words) (14 kinds of fungi): very good bactericidal activity against various kinds of fungi; Corn borer Mortality (%) (corn borers): 5%
6 | C[C@@H]1N[C@H](C(=O)NN=Cc2ccc(Cl)cc2)Cc2c1[nH]c1ccccc21 [Ic-5, (1S, 3S)—N′-(4-chlorobenzylidene)-1-methyl-2,3,4,9-tetrahydropyridino [3,4-b] indol-3-formylhydrazine] | 30.8 | 67.3 | 35.9 | 70.4 | 29.2 | 71.5 | 34.1 | 64.2 | 61.5 | 76.5 | 97.2 | 55.0 | 75.9 | 80.0 | 88.2 | 59.1 | 81.6 | 81.6 | 64.3 | 94.1 | Bactericidal activity (%) Bipolaria maydis (Bipolaria maydis): 68.0%; Bactericidal activity (%) Colletotrichum orbiculare [5]: 77.8%; Armyworm Mortality (%) (armyworms): 25%; Cotton bollworm Mortality (%) (cotton bollworms): 25%; Mosquito larvae Mortality (%) (mosquito larvae): 50%; bactericidal activity against fungi (in words) (14 kinds of fungi): very good bactericidal activity against various kinds of fungi; Corn borer Mortality (%) (corn borers): 20%
7 | C[C@@H]1N[C@H](C(=O)NN=Cc2ccc(Cl)c(Cl)c2)Cc2c1[nH]c1ccccc21 [Ic-7, (1S, 3S)—N′-(3,4-dichlorobenzylidene)-1-methyl-2,3,4,9-tetrahydropyridino [3,4-b] indol-3-formylhydrazine] | 15.1 | 50.7 | 20.4 | 55.2 | 23.5 | 48.9 | 14.8 | 48.1 | 77.3 | 72.7 | 97.0 | 71.4 | 76.9 | 65.2 | 84.6 | 80.6 | 62.5 | 84.8 | 70.6 | 97.3 | Bactericidal activity (%) Bipolaria maydis (Bipolaria maydis): 80.0%; Bactericidal activity (%) Colletotrichum orbiculare [5]: 80.0%; Armyworm Mortality (%) (armyworms): 5%; Cotton bollworm Mortality (%) (cotton bollworms): 30%; Mosquito larvae Mortality (%) (mosquito larvae): 10%; bactericidal activity against fungi (in words) (14 kinds of fungi): very good bactericidal activity against various kinds of fungi; Corn borer Mortality (%) (corn borers): 5%
